Holding throughout (assay): MIC by agar plate dilution method on standard strains (Example 3)
Format in all cases: cell-based
Common to all, as to conditions: read-out: MIC

The test system of assay [1] is Staphylococcus epidermidis ATCC12228. The procedure:
(§1) Minimum growth-inhibiting concentrations of trifluoromethionine and other antibacterial drugs on standard strains were determined by an agar plate dilution method according to the standard method of Japanese Society of Chemotherapy.
(§2) Drug solutions at a concentration 10 times as high as the maximum applicable concentration were prepared as original solutions of test drugs given in Table 2 (as to solvents used for this purpose, reference should be made also to Table 2). Serial two-fold dilution series of the original solutions were prepared at desired stages, and 1 ml each of the diluted drug solutions was added to 9 ml of media given in Table 3 to prepare drug plates. Concentration range of the individual drugs used are as follows: trifluoromethionine: 400-0.025 μg/ml (15 stages), tetracycline: 100-0.025 μg/ml (13 stages), and clarithromycin: 100-0.025 μg/ml (13 stages).
(§3) • 1) Bacterial solutions stocked at −80° C. were inoculated on agar media (as to media used, reference should be made to Table 3), and then incubated at 37° C. overnight. When desired, subculturing was conducted once more on the same agar media (by overnight incubation at 37° C.). • 2) Colonies growing on the agar media were sampled by a platinum loop, suspended in liquid media (reference should be made to Table 3) and statically incubated at 37° C. for 18 hours (preculturing). • 3) Preculturing was continued up to McFarland 0.5 (McFarland 0.5=about 10^8 CFU/ml), and then the culture broths were diluted with Muellar Hinton Broth to make 10^6 CFU/ml. 5 μl each of the diluted solutions were inoculated on the above-mentioned drug plates by an inoculator Microplanter.
(§4) Thus, bacterial solutions at about 10^8 CFU/ml can be easily prepared by use of McFarland 0.5. Bacterial solutions at such a turbidity are commercially available, but can be easily prepared. McFarland 0.5 can be obtained by adding 0.5 ml of an aqueous 0.048 mol/l barium chloride solution to 99.5 ml of 1% v/v (0.18 mol/l) sulfuric acid. • 4) The individual bacteria were incubated at 37° C. for 18-20 hours and then the growth was determined in the same manner as in Example 2 to obtain minimum growth-inhibiting concentrations.

The subject of assay [2] is Staphylococcus epidermidis ATCC29886. The procedure: as §1, §2, §3, §4
The test system of assay [3] is Bacillus subtilis ATCC6633. Here is the method: as §3, with “Drug solutions at a concentration 10 times as high as the maximum applicable concentration were prepared as original solutions of test drugs given in Table 2 (as to solvents used for this purpose, reference should be made also to Table 2). Serial two-fold dilution series of the original solutions were prepared at desired stages, and 1 ml each of the diluted drug solutions was added to 9 ml of media given in Table 3 to prepare drug plates. […] • 1)” for “• 1)”, “inoculator Microplanter. […] Thus, bacterial solutions at about 10^8 CFU/ml can be easily prepared by use of McFarland 0.5. Bacterial solutions at such a turbidity are commercially available, but can be easily prepared.” for “inoculator Microplanter.”

Assay [4] has as its system Enterococcus faecalis ATCC29247. Here is the method:
as §3, with “Drug solutions at a concentration 10 times as high as the maximum applicable concentration were prepared as original solutions of test drugs given in Table 2 (as to solvents used for this purpose, reference should be made also to Table 2). Serial two-fold dilution series of the original solutions were prepared at desired stages, and 1 ml each of the diluted drug solutions was added to 9 ml of media given in Table 3 to prepare drug plates. […] • 1)” for “• 1)”, “inoculator Microplanter. […] Thus, bacterial solutions at about 10^8 CFU/ml can be easily prepared by use of McFarland 0.5. Bacterial solutions at such a turbidity are commercially available, but can be easily prepared.” for “inoculator Microplanter.”

Assay [5] deals with Enterococcus faecium ATCC19434. Here is the method: as §3, with “Drug solutions at a concentration 10 times as high as the maximum applicable concentration were prepared as original solutions of test drugs given in Table 2 (as to solvents used for this purpose, reference should be made also to Table 2). Serial two-fold dilution series of the original solutions were prepared at desired stages, and 1 ml each of the diluted drug solutions was added to 9 ml of media given in Table 3 to prepare drug plates. […] • 1)” for “• 1)”, “inoculator Microplanter. […] Thus, bacterial solutions at about 10^8 CFU/ml can be easily prepared by use of McFarland 0.5. Bacterial solutions at such a turbidity are commercially available, but can be easily prepared.” for “inoculator Microplanter.”

In assay [6] the test system is Escherichia coli ATCC25922. Here is the method:
as §3, with “Drug solutions at a concentration 10 times as high as the maximum applicable concentration were prepared as original solutions of test drugs given in Table 2 (as to solvents used for this purpose, reference should be made also to Table 2). Serial two-fold dilution series of the original solutions were prepared at desired stages, and 1 ml each of the diluted drug solutions was added to 9 ml of media given in Table 3 to prepare drug plates. […] • 1)” for “• 1)”, “inoculator Microplanter. […] Thus, bacterial solutions at about 10^8 CFU/ml can be easily prepared by use of McFarland 0.5. Bacterial solutions at such a turbidity are commercially available, but can be easily prepared.” for “inoculator Microplanter.”

Assay [7] deals with Escherichia coli ATCC35218. The procedure: as §3, with “Drug solutions at a concentration 10 times as high as the maximum applicable concentration were prepared as original solutions of test drugs given in Table 2 (as to solvents used for this purpose, reference should be made also to Table 2). Serial two-fold dilution series of the original solutions were prepared at desired stages, and 1 ml each of the diluted drug solutions was added to 9 ml of media given in Table 3 to prepare drug plates. […] • 1)” for “• 1)”, “inoculator Microplanter. […] Thus, bacterial solutions at about 10^8 CFU/ml can be easily prepared by use of McFarland 0.5. Bacterial solutions at such a turbidity are commercially available, but can be easily prepared.” for “inoculator Microplanter.”

In assay [8] the test system is Haemophilus influenzae ATCC33391. Here is the method: as §3, with “Drug solutions at a concentration 10 times as high as the maximum applicable concentration were prepared as original solutions of test drugs given in Table 2 (as to solvents used for this purpose, reference should be made also to Table 2). Serial two-fold dilution series of the original solutions were prepared at desired stages, and 1 ml each of the diluted drug solutions was added to 9 ml of media given in Table 3 to prepare drug plates. […] • 1)” for “• 1)”, “inoculator Microplanter. […] Thus, bacterial solutions at about 10^8 CFU/ml can be easily prepared by use of McFarland 0.5. Bacterial solutions at such a turbidity are commercially available, but can be easily prepared.” for “inoculator Microplanter.”

The subject of assay [9] is Haemophilus influenzae ATCC33533. Here is the method:
as §3, with “Drug solutions at a concentration 10 times as high as the maximum applicable concentration were prepared as original solutions of test drugs given in Table 2 (as to solvents used for this purpose, reference should be made also to Table 2). Serial two-fold dilution series of the original solutions were prepared at desired stages, and 1 ml each of the diluted drug solutions was added to 9 ml of media given in Table 3 to prepare drug plates. […] • 1)” for “• 1)”, “inoculator Microplanter. […] Thus, bacterial solutions at about 10^8 CFU/ml can be easily prepared by use of McFarland 0.5. Bacterial solutions at such a turbidity are commercially available, but can be easily prepared.” for “inoculator Microplanter.”

In assay [10] the test system is Haemophilus influenzae ATCC49247. The procedure:
as §3, with “Drug solutions at a concentration 10 times as high as the maximum applicable concentration were prepared as original solutions of test drugs given in Table 2 (as to solvents used for this purpose, reference should be made also to Table 2). Serial two-fold dilution series of the original solutions were prepared at desired stages, and 1 ml each of the diluted drug solutions was added to 9 ml of media given in Table 3 to prepare drug plates. […] • 1)” for “• 1)”, “inoculator Microplanter. […] Thus, bacterial solutions at about 10^8 CFU/ml can be easily prepared by use of McFarland 0.5. Bacterial solutions at such a turbidity are commercially available, but can be easily prepared.” for “inoculator Microplanter.”

The subject of assay [11] is Haemophilus influenzae ATCC49766. The procedure: as §3, with “Drug solutions at a concentration 10 times as high as the maximum applicable concentration were prepared as original solutions of test drugs given in Table 2 (as to solvents used for this purpose, reference should be made also to Table 2). Serial two-fold dilution series of the original solutions were prepared at desired stages, and 1 ml each of the diluted drug solutions was added to 9 ml of media given in Table 3 to prepare drug plates. […] • 1)” for “• 1)”, “inoculator Microplanter. […] Thus, bacterial solutions at about 10^8 CFU/ml can be easily prepared by use of McFarland 0.5. Bacterial solutions at such a turbidity are commercially available, but can be easily prepared.” for “inoculator Microplanter.”

Assay [12] has as its system Klebsiella pneumoniae ATCC700603. The procedure: as §3, with “Drug solutions at a concentration 10 times as high as the maximum applicable concentration were prepared as original solutions of test drugs given in Table 2 (as to solvents used for this purpose, reference should be made also to Table 2). Serial two-fold dilution series of the original solutions were prepared at desired stages, and 1 ml each of the diluted drug solutions was added to 9 ml of media given in Table 3 to prepare drug plates. […] • 1)” for “• 1)”, “inoculator Microplanter. […] Thus, bacterial solutions at about 10^8 CFU/ml can be easily prepared by use of McFarland 0.5. Bacterial solutions at such a turbidity are commercially available, but can be easily prepared.” for “inoculator Microplanter.”

The subject of assay [13] is Micrococcus luteus ATCC9341. Here is the method:
as §3, with “Drug solutions at a concentration 10 times as high as the maximum applicable concentration were prepared as original solutions of test drugs given in Table 2 (as to solvents used for this purpose, reference should be made also to Table 2). Serial two-fold dilution series of the original solutions were prepared at desired stages, and 1 ml each of the diluted drug solutions was added to 9 ml of media given in Table 3 to prepare drug plates. […] • 1)” for “• 1)”, “inoculator Microplanter. […] Thus, bacterial solutions at about 10^8 CFU/ml can be easily prepared by use of McFarland 0.5. Bacterial solutions at such a turbidity are commercially available, but can be easily prepared.” for “inoculator Microplanter.”

For assay [14], the system named is Moraxella (Branhamella) catarrhalis ATCC25238. Here is the method:
as §3, with “Drug solutions at a concentration 10 times as high as the maximum applicable concentration were prepared as original solutions of test drugs given in Table 2 (as to solvents used for this purpose, reference should be made also to Table 2). Serial two-fold dilution series of the original solutions were prepared at desired stages, and 1 ml each of the diluted drug solutions was added to 9 ml of media given in Table 3 to prepare drug plates. […] • 1)” for “• 1)”, “inoculator Microplanter. […] Thus, bacterial solutions at about 10^8 CFU/ml can be easily prepared by use of McFarland 0.5. Bacterial solutions at such a turbidity are commercially available, but can be easily prepared.” for “inoculator Microplanter.”

Structures are written as SMILES. In brackets after ≈: the same amount, converted by molar mass. Bounds are passed on as bounds.

`CC[C@H]1OC(=O)[C@H](C)[C@@H](O[C@H]2C[C@@](C)(OC)[C@@H](O)[C@H](C)O2)[C@H](C)[C@@H](O[C@@H]2O[C@H](C)C[C@H](N(C)C)[C@H]2O)[C@](C)(OC)C[C@@H](C)C(=O)[C@H](C)[C@@H](O)[C@]1(C)O` [CAM, Clarithromycin]: the MIC in [1] was found to be 0.2 µg/mL (≈ 0.267 µM); in assay [2], 0.39 µg/mL (≈ 0.521 µM); in assay [3], 0.1 µg/mL (≈ 0.134 µM); in assay [4], 1.56 µg/mL (≈ 2.09 µM); in assay [5], 1.56 µg/mL (≈ 2.09 µM); in assay [6] it was 50 µg/mL (≈ 66.8 µM). The MIC is 25 µg/mL (≈ 33.4 µM) in assay [7]; 6.25 µg/mL (≈ 8.36 µM) in assay [8]; 3.13 µg/mL (≈ 4.18 µM) in assay [9]; 6.25 µg/mL (≈ 8.36 µM) in [10]; 6.25 µg/mL (≈ 8.36 µM) in assay [11]; above 100 µg/mL in assay [12]. Besides, the MIC in assay [13] was found to be 0.05 µg/mL (≈ 0.0668 µM); in [14], 0.1 µg/mL (≈ 0.134 µM).

Values taken from patent US20050175550A1, “Compositions for oral use” (priority 2000, published 2005).
